According to ChEMBL document CHEMBL1150500, “Epoxidation of 6,7- and 10,11-oxidosqualenes by the squalene epoxidase present in rat liver microsomes” (Bioorg Med Chem Lett, 1993):

Biological target: Squalene monooxygenase (Rattus norvegicus, UniProt P52020)
Test: Compound was tested for its inhibitory activity against squalene epoxidase from rat liver microsomes

Chain of Squalene monooxygenase (P52020 whole entry): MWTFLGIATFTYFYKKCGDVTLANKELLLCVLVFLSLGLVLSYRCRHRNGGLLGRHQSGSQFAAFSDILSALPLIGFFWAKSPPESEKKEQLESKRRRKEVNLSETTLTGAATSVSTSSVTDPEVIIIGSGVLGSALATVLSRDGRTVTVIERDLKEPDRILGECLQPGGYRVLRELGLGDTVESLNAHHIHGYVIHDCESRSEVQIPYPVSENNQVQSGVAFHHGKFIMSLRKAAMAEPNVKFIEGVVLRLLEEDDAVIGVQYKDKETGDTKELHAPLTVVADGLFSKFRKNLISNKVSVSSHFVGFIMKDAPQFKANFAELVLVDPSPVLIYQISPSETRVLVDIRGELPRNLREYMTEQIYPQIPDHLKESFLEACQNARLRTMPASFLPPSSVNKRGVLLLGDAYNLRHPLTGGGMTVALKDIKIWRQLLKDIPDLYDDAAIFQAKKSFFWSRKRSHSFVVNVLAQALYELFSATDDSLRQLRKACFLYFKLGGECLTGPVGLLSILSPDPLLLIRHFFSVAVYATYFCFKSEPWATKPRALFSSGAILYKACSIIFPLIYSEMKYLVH

IC50	SMILES
13 µM	CC(C)=CCC/C(C)=C/CC/C(C)=C/CCC1OC1(C)CC/C=C(\C)CC[C@@H]1OC1(C)C (some centres undefined)
0.11 µM	CC(C)=CCCC1(C)OC1CC/C(C)=C/CC/C=C(\C)CC/C=C(\C)CC[C@@H]1OC1(C)C (some centres undefined)
31.8 µM	CC(C)=CCC/C(C)=C/CC/C(C)=C/CC/C=C(\C)CCC1OC1(C)CCC=C(C)C (centres undefined)
50.9 µM	CC(C)=CCC/C(C)=C/CC/C(C)=C/CCC1OC1(C)CC/C=C(\C)CCC=C(C)C (centres undefined)
